Data set [1] addresses T1, TFPI (Homo sapiens, UniProt P10646). Kind of data set: IC50 Mean (nM].
Excerpt: Head of the field: IC50 Mean (nM]
“*” denotes negative controls.
In data set [2] the target is T1, TFPI. Kind of data set: IC50 [nM].
Data set [3] has as its target T1, TFPI. Kind of data set: IC50 [nM]. The source holds these as a separate data set.
Data set [4] addresses Tissue Factor Pathway Inhibitor (TFPI) (Homo sapiens, UniProt P10646). Kind of data set: IC50 ELISA | IC50 [nM].
Data set [5] relates to FVIII knock-out mice. To be noted: 1 mg/kg JBT2329 without ADVATE.
Data set [6] has as its system human whole blood clot formation. Kind of data set: rotation thromboelastography (ROTEM). The note with it: Hem A (FVIII-inhibited) human whole blood.
Description: Continuous visco-elastic assessment of human whole blood clot formation and firmness was performed by rotation thromboelastography with whole blood preparations in the presence or absence of peptides.
Recordings were made using a ROTEM thromboelastography coagulation analyzer (Pentapharm, Munich, Germany) at 37° C. Briefly, blood is added into a disposable cuvette in a heated cuvette holder. A disposable pin (sensor) is fixed on the tip of a rotating axis. The axis is guided by a high precision ball bearing system and rotates back and forth. The axis is connected with a spring for the measurement of elasticity. The exact position of the axis is detected by the reflection of light on a small mirror on the axis. The loss of elasticity when the sample clots leads to a change in the rotation of the axis. The data obtained are computer analyzed and visualized in a thromboelastogram. […] An elasticity of approximately zero is observed before clot formation begins. Mirror image traces above and below the zero line indicate the effect of clot formation on the rotation of the axis. […]
The thromboelastographic parameters of clotting time (CT), clot formation time (CFT) and maximum clot firmness (MCF) were recorded in accordance with the manufacturer's instructions. […] From this graph, the maximum velocity (maxV) is determined. The time at which the maximum velocity is obtained (maxV-t) is also determined.
Data set [7] concerns FIX knock-out mice. Kind of data set: tail-tip bleed model. It is filed as in vivo, mouse. How it is done: The amount of blood was determined gravimetrically.
JBT2329 also was tested in a FIX knock-out tail-tip bleed mouse model, which is a clinically-relevant model for hemophilia B human patients. The methodology was substantially similar to that described above with respect to the FVIII knock-out model. Instead of ADVATE, a recombinant FIX (rFIX) served as a reference. Median total blood loss in buffer-treated animals was 935 mg. Median total blood loss in animals treated with a murine anti-TFPI antibody (maTFPI) was 774 mg. Median total blood loss was reduced further when the animals received combined treatment of maTFPI and rFIX.

The test system of data set [8] is C57B1/6NCr1 mice. Kind of data set: nail clip blood loss study. It is filed as in vivo, mouse.
Data set [9] in a line: pharmacokinetic analysis in mice. It counts as in vivo, mouse. The note with it: C57B16 mice, 1 mg/kg (peptide content).
Description: The peptides were administered intravenously to C57B16 mice at a dose of 10 mg/kg. Three biological samples were analyzed for the presence of peptide at each time point.
For pharmacokinetic analysis, C57B16 mice were treated with various TFPI-binding peptides conjugated to different molecular weight PEGs and HSA. The dose of the peptide-PEG and peptide-HSA conjugates was normalized to 1 mg/kg (peptide content). […] Blood draws were taken from three animals (retro bulbar) and collected in heparinized vials at several time points following administration. The samples were centrifuged, and the peptide-conjugate content in plasma was quantified by ELISA.
Data set [10] can be described thus: plasma stability in human plasma. It is filed as in vitro ADME. The note with it: 24 hour.

Where a SMILES comes first, the peptide text is derived from it. [ ]: non-standard residue; d: D form. Tle = CC(C)(C)[C@H](N)C(=O)O; Aib = CC(C)(N)C(=O)O

T1 sequence (P10646 29-304 limits assumed): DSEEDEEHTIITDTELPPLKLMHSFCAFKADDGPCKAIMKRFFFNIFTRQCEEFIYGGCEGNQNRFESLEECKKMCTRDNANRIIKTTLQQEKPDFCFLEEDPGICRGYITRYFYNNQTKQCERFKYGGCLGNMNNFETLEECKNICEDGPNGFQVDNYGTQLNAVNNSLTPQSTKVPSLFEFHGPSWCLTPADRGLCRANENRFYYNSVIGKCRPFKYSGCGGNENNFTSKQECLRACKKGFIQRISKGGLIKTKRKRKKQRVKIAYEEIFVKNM
Sequence of Tissue Factor Pathway Inhibitor (TFPI) (P10646 29-304 limits assumed): as above

What is called IC50 is the concentration at which inhibition is half-maximal. `CC[C@H](C)[C@H](NC(=O)[C@@H](NC(=O)CNC(=O)[C@@H]1CCCN1C(=O)CNC(=O)[C@H](Cc1c[nH]c2ccccc12)NC(=O)[C@@H](NC(=O)[C@@H](NC(=O)[C@H](CCCCN)NC(=O)[C@H](CO)NC(=O)[C@H](Cc1c[nH]c2ccccc12)NC(=O)[C@H](Cc1ccccc1)NC(=O)[C@H](Cc1ccc(O)cc1)NC(=O)[C@@H](NC(=O)[C@H](Cc1c[nH]c2ccccc12)NC(=O)[C@H](CC(=O)O)NC(=O)CNC(=O)[C@@H](NC(=O)[C@H](CC(C)C)NC(=O)[C@H](CCCCN)NC(=O)[C@H](CCCCN)NC(C)=O)[C@@H](C)O)[C@@H](C)O)C(C)C)[C@@H](C)CC)C(C)C)C(=O)N[C@@H](CCC(=O)O)C(=O)N[C@@H](CCCNC(=N)N)C(=O)N[C@@H](CCC(N)=O)C(=O)N[C@@H](CCSC)C(=O)N1CCC[C@H]1C(=O)N[C@H](C(=O)N[C@@H](CO)C(=O)N[C@H](C(=O)N[C@@H](Cc1ccccc1)C(=O)N[C@@H](Cc1c[nH]cn1)C(=O)N[C@@H](CCCCN)C(=O)N[C@@H](CCCCN)C(N)=O)[C@@H](C)O)C(C)C` [JBT0177* | 3065] (Ac-KKLTGDWTYFWSKVIWGPGVIERQMPVSTFHKK-NH2) registered an IC50 in [1] above 50 µM.
In turn, `CSCC[C@H](NC(=O)[C@H](CCC(=O)O)NC(=O)[C@H](CCCCN)NC(=O)[C@H](CO)NC(=O)[C@H](CCCNC(=N)N)NC(=O)[C@H](CCCCN)NC(=O)[C@H](CO)NC(=O)[C@@H](NC(=O)[C@H](Cc1c[nH]cn1)NC(=O)[C@H](CC(C)C)NC(=O)[C@H](CCC(N)=O)NC(=O)[C@@H](NC(=O)[C@H](C)NC(=O)[C@H](CC(C)C)NC(=O)[C@@H]1CCCN1C(=O)[C@H](CCCCN)NC(=O)[C@H](CCCCN)NC(C)=O)C(C)C)C(C)C)C(=O)N[C@@H](C)C(=O)N[C@@H](CC(C)C)C(=O)N[C@@H](C)C(=O)N[C@@H](CCCNC(=N)N)C(=O)N[C@@H](CC(C)C)C(=O)N[C@@H](Cc1ccc(O)cc1)C(=O)N[C@@H](Cc1ccc(O)cc1)C(=O)N[C@@H](CCCCN)C(=O)N[C@H](C(=O)N[C@@H](CO)C(=O)N[C@@H](CCCCN)C(=O)N[C@@H](CCCCN)C(N)=O)[C@@H](C)O` [JBT0229 | 2129] (Ac-KKPLAVQLHVSKRSKEMALARLYYKTSKK-NH2) registered a concentration for half-maximal inhibition (IC50) in data set [2] of 17 µM.
Turning to `CC[C@H](C)[C@H](NC(=O)[C@H](CCC(=O)O)NC(=O)[C@H](CCCCN)NC(=O)[C@H](CO)NC(=O)[C@H](CCCNC(=N)N)NC(=O)[C@H](CCCCN)NC(=O)[C@H](CO)NC(=O)[C@@H](NC(=O)[C@H](Cc1c[nH]cn1)NC(=O)[C@H](CC(C)C)NC(=O)[C@H](CCC(N)=O)NC(=O)[C@@H](NC(=O)[C@H](C)NC(=O)[C@H](CCC(N)=O)NC(=O)[C@H](Cc1c[nH]c2ccccc12)NC(=O)[C@H](Cc1ccccc1)NC(=O)[C@H](CO)NC(=O)[C@H](C)NC(=O)[C@H](Cc1ccc(O)cc1)NC(=O)CNC(C)=O)C(C)C)C(C)C)C(=O)N[C@@H](C)C(N)=O` [JBT1663 | 2146] (Ac-GYASFWQAVQLHVSKRSKEIA-NH2), half-maximal inhibition in [3] (IC50) required 12.9 µM.
In turn, `CC(=O)N[C@@H](Cc1ccccc1)C(=O)N[C@@H](CCC(N)=O)C(=O)N[C@@H](CC(=O)O)C(=O)N[C@@H](CCCCN)C(=O)N1CCC[C@@H]1C(=O)N[C@@H](CC(N)=O)C(=O)N[C@H](C(=O)N[C@@H](Cc1c[nH]cn1)C(=O)N[C@H](C(=O)N[C@@H](CC(=O)O)C(=O)NCC(=O)N[C@@H](Cc1ccc(O)cc1)C(=O)N[C@@H](Cc1ccccc1)C(=O)N[C@@H](CCC(=O)O)C(=O)N[C@@H](CCCNC(=N)N)C(=O)N[C@@H](CC(C)C)C(=O)NC(C)(C)C(=O)N[C@@H](C)C(=O)N[C@@H](CCCCN)C(=O)N[C@@H](CC(C)C)C(N)=O)C(C)(C)C)C(C)C` [JBT2426 | 4144, Ac-FQDKpNVH-Tle-DGYFERL-Aib-AKL-NH2] (Ac-FQDK[dP]NVH[Tle]DGYFERL[Aib]AKL-NH2) displayed an IC50 in data set [4] of 0.0105 µM.
For “Ac-FQSKpNVHVDGYFERL-Aib-AKLC(PEG)-NH2 [JBT2329]”, the “median total blood loss vs buffer” value in [5] is on record as “did not reduce median total blood loss”. In addition, the coagulation parameters entry in data set [6] is on record as “restored prolonged coagulation parameters in Hem A blood”. The “median total blood loss vs buffer” value in data set [7] (1 mg/kg JBT2329 alone (p=0.321)) was “did not lead to a significant reduction in median total blood loss”. Also, the “Efficacy vs buffer at a […] level” value in data set [7] (JBT2329 1 mg/kg or 0.1 mg/kg in combination with 10 IU/kg rFIX) is reported as “statistically significant superiority over buffer”. Moreover, in data set [8] (0.1 mg/kg i.v.), the “blood loss, second 30 minute period” value is 18.7 µL; the “reduction of blood loss vs vehicle, first 30 minutes” value was “about 50%”; the “reduction of blood loss vs vehicle, second 30 minute period” value is reported as “about 64%”; the “reduction of total blood loss over 60 minutes vs vehicle” value is on record as around 60%. Besides, the “total blood loss over 60 minutes” value in data set [8] (0.1 mg/kg i.v.) turned out to be 34.7 µL. For the same molecule, the “blood loss, first 30 minutes” value in data set [8] (0.1 mg/kg i.v., naive C57BL6 mice) worked out at 16.0 µL. Besides, in [8] (1.0 mg/kg i.v.), the “blood loss, entire 60 minute collection period” value came out at 22.8 µL; the “blood loss, first 30 minutes” value is 12.2 µL; the “blood loss, second 30 minute period” value was determined as 10.6 µL. Besides, the “reduction of blood loss during 60 minutes vs vehicle” value in data set [8] (10 mg/kg subcutaneous) is given as “approximately 58%”. Also, the “HL_λ_z [h] (intravenous)” value in data set [9] (intravenous) amounted to 19.8 h. Besides, the “Bioavailability [%] (s.c.)” value in data set [9] (s.c. AUC vs i.v. AUC) is 73.3%. Further, the “Human Plasma Stability, 24 hour (%)” value in data set [10] came out at 67.3%.

The values above are taken from patent US10201586B2 (dated 2019).
